Test results as given in US20130253058A1, “SATIETY-INDUCING COMPOSITION” (DSM IP ASSETS B.V., priority 2009, published 2013).
Where two headings read alike, the source gives them in different places.

Conditions: 3.5 % lipids in yoghurt
Procedure: Analogous to example 2 four yoghurts with 3.5% fat (lipids) were followed during transit in the TNO intestinal Model (TIM).
The digestion process in the model was monitored for 5 hours. During the first 3 hours, the gastric content was gradually delivered into the small intestine via the Pyloric valve. At the end of the experiment, approximately 80% of the small intestine content was gradually delivered into the Large intestine via the Ileocecal valve.
Gastric secretions consisted of pepsin from porcine gastric mucosa (EC 3.4.23.1; Sigma-Aldrich Canada) and lipase (EC 3.1.1.3, from Rhizopus oryzae, Amano Pharmaceuticals, Japan), both dissolved in a Gastric Electrolyte Solution (GES: 3.1 g/l NaCl; 1.1 g/l KCl; 0.15 g/l CaCl2; 0.6 g/l NaHCO3). At the beginning of the experiment, a solution of trypsin from porcine pancreas (EC 3.4.21.4; Sigma-Aldrich Canada) was directly introduced into the duodenum. Also, porcine bile extract (supernatant of centrifuged, thawed bile from frozen, fresh collected porcine bile); pancreatic solution (Pancrex V powder; Paines and Byrne, UK), and intestine electrolyte solution (5.0 g/l NaCl; 0.6 g/l KCl; 0.3 g/l CaCl2 at pH 7.0) were delivered in the duodenal compartment.
Prior to testing the yoghurt containers were gently shaken to homogenise contents. At the beginning of each experiment, a 270 g amount of yoghurt was introduced into the gastric (i.e. stomach)—compartment of the TIM. At specific intervals samples were taken from different compartments of the gastro-intestinal tract (Gastric-; jejunum- and ileum lumen). A selection of fresh lumen samples were also directly visually studied by Bright Field microscope (Leica ATC2000 Binocular Microscope), equipped with a phase contrast mode.
The profile of the free fatty acid part of the lipid composition (FFA analysis) was determined by a method developed by the NIZO.
The free fatty acid level for all fatty acids in the ileum as well as the saturated fatty acid (FA) fraction C16:0 and C18:0 and higher in the ileum lumen were determined using FFA method as described above.

With `CCCCCCCCCCCCCCCC(=O)O` [Palmitic acid] the “Total FFA levels in the ileum lumen” value (1 h) was 171.5 g FFA/kg dry matter, the “saturated FFA (C16:0 + C18:0 + C20:0) based on total FFA in the ileum lumen” value (shortened to “saturated FFA”) (1 h) was 91.4 w/w % and the “Total FFA levels in the ileum lumen” value (2 h) was 348.3 g FFA/kg dry matter. The “saturated FFA” value (2 h) was 96.6 w/w %, the “Total FFA levels in the ileum lumen” value (3 h) was 504.8 g FFA/kg dry matter and the “saturated FFA” value (3 h) was 97.8 w/w %. The “Total FFA levels in the ileum lumen” value (4 h) was 461.6 g FFA/kg dry matter, the “saturated FFA” value (4 h) was 97.5 w/w % and the “Total FFA levels in the ileum lumen” value (5 h) was 466.2 g FFA/kg dry matter. For the same compound, the “saturated FFA” value (5 h) was 97.6 w/w %.
